# According to US20230085307A1, “PYRIDAZINONE COMPOUND AND HERBICIDE” (NISSAN CHEMICAL CORPORATION, priority 2019, published 2023):
# Experiments:
# green foxtail [1] = assay: Test Example 5: herbicidal effect by foliage application, plastic box (Table 20, symbol G); format: in vivo, green foxtail (Setaria viridis); settings: foliage application, 320 g/ha
# Method in brief: (§1)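 Foliar spray test: emulsion formulation diluted in water to a set application rate, sprayed onto 14-day-old plants raised in diluvial soil at 25° C to 30° C under glass. Both herbicidal effect and crop effect rated visually three weeks later.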
# barnyard grass [2] = assay: Test Example 4: herbicidal effect by soil treatment (Table 19, symbol H); format: in vivo, barnyard grass (Echinochloa crus-galli); settings: amount of applied herbicide 320 g/ha
# Method in brief: (§2)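 Step 1: sow seeds in sterilized diluvial soil, cover ~1.5 cm. Step 2: spray diluted emulsion onto soil surface at predetermined rate. Step 3: greenhouse, 25–30° C, three weeks. Step 4: grade effect on each plant by earlier criteria.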
# false cleavers [3] = assay: Test Example 5: herbicidal effect by foliage application, plastic box (Table 20, symbol Q); format: in vivo, false cleavers (Galium spurium); settings: foliage application, 320 g/ha
# Method in brief: as §1
# windgrass [4] = assay: Test Example 4: herbicidal effect by soil treatment (Table 19, symbol L); format: in vivo, windgrass (Apera spica-venti); settings: amount of applied herbicide 320 g/ha
# Method in brief: as §2
# barnyard grass [5] = assay: Test Example 5: herbicidal effect by foliage application, plastic box (Table 20, symbol H); format: in vivo, barnyard grass (Echinochloa crus-galli); settings: foliage application, 320 g/ha
# Method in brief: as §1
# velvetleaf [6] = assay: Test Example 5: herbicidal effect by foliage application, plastic box (Table 20, symbol M); format: in vivo, velvetleaf (Abutilon theophrasti); settings: foliage application, 320 g/ha
# Method in brief: as §1
# persian speedwell [7] = assay: Test Example 5: herbicidal effect by foliage application, plastic box (Table 20, symbol R); format: in vivo, Persian speedwell (Veronica persica); settings: foliage application, 320 g/ha
# Method in brief: as §1
# barnyard grass [8] = assay: Test Example 3: herbicidal effect by foliage application, Wagner pot (Table 18, symbol H); format: in vivo, barnyard grass (Echinochloa crus-galli); settings: amount of applied herbicide 320 g/ha
# Method in brief: (§3)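 Plants were sown in alluvial soil held under 0.1–0.5 cm standing water and grown 14 days in a greenhouse at 25–30 °C. An emulsifiable formulation, water-diluted to the set dose, was then sprayed onto the foliage, and effects were scored three weeks later using previously defined criteria.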
# wild oat [9] = assay: Test Example 5: herbicidal effect by foliage application, plastic box (Table 20, symbol I); format: in vivo, wild oat (Avena fatua); settings: foliage application, 320 g/ha
# Method in brief: as §1
# windgrass [10] = assay: Test Example 5: herbicidal effect by foliage application, plastic box (Table 20, symbol L); format: in vivo, windgrass (Apera spica-venti); settings: foliage application, 320 g/ha
# Method in brief: as §1
# blackgrass [11] = assay: Test Example 5: herbicidal effect by foliage application, plastic box (Table 20, symbol J); format: in vivo, blackgrass (Alopecurus myosuroides); settings: foliage application, 320 g/ha
# Method in brief: as §1
# chickweed [12] = assay: Test Example 5: herbicidal effect by foliage application, plastic box (Table 20, symbol P); format: in vivo, common chickweed (Stellaria media); settings: foliage application, 320 g/ha, evaluated three weeks after application
# Method in brief: as §1
# persian speedwell [13] = assay: Test Example 4: herbicidal effect by soil treatment (Table 19, symbol R); format: in vivo, Persian speedwell (Veronica persica); settings: amount of applied herbicide 320 g/ha
# Method in brief: as §2
# redroot pigweed [14] = assay: Test Example 5: herbicidal effect by foliage application, plastic box (Table 20, symbol N); format: in vivo, redroot pigweed (Amaranthus retroflexus); settings: foliage application, 320 g/ha, evaluated three weeks after application
# Method in brief: as §1
# Chinese sprangletop = assay: Test Example 3: herbicidal effect by foliage application, Wagner pot (Table 18, symbol D); format: in vivo, chinese sprangletop (Leptochloa chinensis); settings: amount of applied herbicide 320 g/ha
# Method in brief: as §3
# rice flat sedge = assay: Test Example 3: herbicidal effect by foliage application, Wagner pot (Table 18, symbol E); format: in vivo, rice flat sedge (Cyperus iria); settings: amount of applied herbicide 320 g/ha
# Method in brief: as §3
# blackgrass [15] = assay: Test Example 4: herbicidal effect by soil treatment (Table 19, symbol J); format: in vivo, blackgrass (Alopecurus myosuroides); settings: amount of applied herbicide 320 g/ha
# Method in brief: as §2
# southern crabgrass [16] = assay: Test Example 5: herbicidal effect by foliage application, plastic box (Table 20, symbol F); format: in vivo, southern crabgrass (Digitaria ciliaris); settings: foliage application, 320 g/ha
# Method in brief: as §1
# false cleavers [17] = assay: Test Example 4: herbicidal effect by soil treatment (Table 19, symbol Q); format: in vivo, false cleavers (Galium spurium); settings: amount of applied herbicide 320 g/ha
# Method in brief: as §2
# wild oat [18] = assay: Test Example 4: herbicidal effect by soil treatment (Table 19, symbol I); format: in vivo, wild oat (Avena fatua); settings: amount of applied herbicide 320 g/ha
# Method in brief: as §2
# chickweed [19] = assay: Test Example 4: herbicidal effect by soil treatment (Table 19, symbol P); format: in vivo, common chickweed (Stellaria media); settings: amount of applied herbicide 320 g/ha
# Method in brief: as §2
# velvetleaf [20] = assay: Test Example 4: herbicidal effect by soil treatment (Table 19, symbol M); format: in vivo, velvetleaf (Abutilon theophrasti); settings: amount of applied herbicide 320 g/ha
# Method in brief: as §2
# southern crabgrass [21] = assay: Test Example 4: herbicidal effect by soil treatment (Table 19, symbol F); format: in vivo, southern crabgrass (Digitaria ciliaris); settings: amount of applied herbicide 320 g/ha
# Method in brief: as §2
# lambsquarters [22] = assay: Test Example 4: herbicidal effect by soil treatment (Table 19, symbol O); format: in vivo, lambsquarters (Chenopodium album); settings: amount of applied herbicide 320 g/ha
# Method in brief: as §2
# lambsquarters [23] = assay: Test Example 5: herbicidal effect by foliage application, plastic box (Table 20, symbol O); format: in vivo, lambsquarters (Chenopodium album); settings: foliage application, 320 g/ha
# Method in brief: as §1
# Italian ryegrass [24] = assay: Test Example 4: herbicidal effect by soil treatment (Table 19, symbol K); format: in vivo, Italian ryegrass (Lolium multiflorum); settings: amount of applied herbicide 320 g/ha
# Method in brief: as §2
# Italian ryegrass [25] = assay: Test Example 5: herbicidal effect by foliage application, plastic box (Table 20, symbol K); format: in vivo, Italian ryegrass (Lolium multiflorum); settings: foliage application, 320 g/ha
# Method in brief: as §1
# redroot pigweed [26] = assay: Test Example 4: herbicidal effect by soil treatment (Table 19, symbol N); format: in vivo, redroot pigweed (Amaranthus retroflexus); settings: amount of applied herbicide 320 g/ha
# Method in brief: as §2
# green foxtail [27] = assay: Test Example 4: herbicidal effect by soil treatment (Table 19, symbol G); format: in vivo, green foxtail (Setaria viridis); settings: amount of applied herbicide 320 g/ha
# Method in brief: as §2
# [28] = evaluated three weeks after application
structure (smiles),measurement,setting,value
COc1cc(F)ccc1-c1sc2ccc(C)cc2c1-c1c(O)c(C)nn(C)c1=O [2-148],herbicidal effect on G: green foxtail (criteria 0-5),green foxtail [1]; [28],5 (Herbicidal rate of 90% or more (almost completely withered))
same,"H: barnyard grass, herbicidal effect rating",barnyard grass [2],4 (Herbicidal rate of 70% or more and less than 90%)
same,herbicidal effect on Q: false cleavers (criteria 0-5),false cleavers [3]; [28],5 (Herbicidal rate of 90% or more (almost completely withered))
same,"L: windgrass, herbicidal effect rating",windgrass [4],0 (Herbicidal rate of 5% or less (almost no effect))
same,herbicidal effect on H: barnyard grass (criteria 0-5),barnyard grass [5]; [28],5 (Herbicidal rate of 90% or more (almost completely withered))
same,herbicidal effect on M: velvetleaf (criteria 0-5),velvetleaf [6]; [28],4 (Herbicidal rate of 70% or more and less than 90%)
same,herbicidal effect on R: persian speedwell (criteria 0-5),persian speedwell [7]; [28],5 (Herbicidal rate of 90% or more (almost completely withered))
same,herbicidal effect on H: barnyard grass,barnyard grass [8],5 (Herbicidal rate of 90% or more (almost completely withered))
same,herbicidal effect on I: wild oat (criteria 0-5),wild oat [9]; [28],3 (Herbicidal rate of 40% or more and less than 70%)
same,herbicidal effect on L: windgrass (criteria 0-5),windgrass [10]; [28],3 (Herbicidal rate of 40% or more and less than 70%)
same,herbicidal effect on J: blackgrass (criteria 0-5),blackgrass [11]; [28],4 (Herbicidal rate of 70% or more and less than 90%)
same,herbicidal effect on P: chickweed (criteria 0-5),chickweed [12],5 (Herbicidal rate of 90% or more (almost completely withered))
same,"R: persian speedwell, herbicidal effect rating",persian speedwell [13],5 (Herbicidal rate of 90% or more (almost completely withered))
same,herbicidal effect on N: redroot pigweed (criteria 0-5),redroot pigweed [14],5 (Herbicidal rate of 90% or more (almost completely withered))
same,herbicidal effect on D: Chinese sprangletop,Chinese sprangletop,3 (Herbicidal rate of 40% or more and less than 70%)
same,herbicidal effect on E: rice flat sedge,rice flat sedge,5 (Herbicidal rate of 90% or more (almost completely withered))
same,"J: blackgrass, herbicidal effect rating",blackgrass [15],3 (Herbicidal rate of 40% or more and less than 70%)
same,herbicidal effect on F: southern crabgrass (criteria 0-5),southern crabgrass [16]; [28],5 (Herbicidal rate of 90% or more (almost completely withered))
same,"Q: false cleavers, herbicidal effect rating",false cleavers [17],5 (Herbicidal rate of 90% or more (almost completely withered))
same,"I: wild oat, herbicidal effect rating",wild oat [18],0 (Herbicidal rate of 5% or less (almost no effect))
same,"P: chickweed, herbicidal effect rating",chickweed [19],5 (Herbicidal rate of 90% or more (almost completely withered))
same,"M: velvetleaf, herbicidal effect rating",velvetleaf [20],3 (Herbicidal rate of 40% or more and less than 70%)
same,"F: southern crabgrass, herbicidal effect rating",southern crabgrass [21],3 (Herbicidal rate of 40% or more and less than 70%)
same,"O: lambsquarters, herbicidal effect rating",lambsquarters [22],5 (Herbicidal rate of 90% or more (almost completely withered))
same,herbicidal effect on O: lambsquarters (criteria 0-5),lambsquarters [23]; [28],4 (Herbicidal rate of 70% or more and less than 90%)
same,"K: Italian ryegrass, herbicidal effect rating",Italian ryegrass [24],1 (Herbicidal rate of 5% or more and less than 20%)
same,herbicidal effect on K: Italian ryegrass (criteria 0-5),Italian ryegrass [25]; [28],4 (Herbicidal rate of 70% or more and less than 90%)
COc1cc(F)ccc1-c1oc2ccccc2c1-c1c(O)c(C)nn(C)c1=O [8-001],herbicidal effect on green foxtail (G),green foxtail [1]; three weeks after application,3 (Herbicidal rate of 40% or more and less than 70%)
same,"H: barnyard grass, herbicidal effect grade",barnyard grass [2],0 (Herbicidal rate of 5% or less (almost no effect))
same,herbicidal effect on false cleavers (Q),false cleavers [3]; three weeks after application,4 (Herbicidal rate of 70% or more and less than 90%)
same,"L: windgrass, herbicidal effect grade",windgrass [4],0 (Herbicidal rate of 5% or less (almost no effect))
same,herbicidal effect on barnyard grass (H),barnyard grass [5]; three weeks after application,3 (Herbicidal rate of 40% or more and less than 70%)
same,herbicidal effect on velvetleaf (M),velvetleaf [6]; three weeks after application,3 (Herbicidal rate of 40% or more and less than 70%)
same,herbicidal effect on persian speedwell (R),persian speedwell [7]; three weeks after application,4 (Herbicidal rate of 70% or more and less than 90%)
same,"Herbicidal effect on H (barnyard grass), foliage application",barnyard grass [8],4 (Herbicidal rate of 70% or more and less than 90%)
same,herbicidal effect on wild oat (I),wild oat [9]; three weeks after application,3 (Herbicidal rate of 40% or more and less than 70%)
same,herbicidal effect on windgrass (L),windgrass [10]; three weeks after application,5 (Herbicidal rate of 90% or more (almost completely withered))
same,herbicidal effect on blackgrass (J),blackgrass [11]; three weeks after application,0 (Herbicidal rate of 5% or less (almost no effect))
same,"N: redroot pigweed, herbicidal effect grade",redroot pigweed [26],0 (Herbicidal rate of 5% or less (almost no effect))
same,"R: persian speedwell, herbicidal effect grade",persian speedwell [13],0 (Herbicidal rate of 5% or less (almost no effect))
same,"Herbicidal effect on D (Chinese sprangletop), foliage application",Chinese sprangletop,3 (Herbicidal rate of 40% or more and less than 70%)
same,"Herbicidal effect on E (rice flat sedge), foliage application",rice flat sedge,1 (Herbicidal rate of 5% or more and less than 20%)
same,"J: blackgrass, herbicidal effect grade",blackgrass [15],0 (Herbicidal rate of 5% or less (almost no effect))
same,herbicidal effect on southern crabgrass (F),southern crabgrass [16]; three weeks after application,0 (Herbicidal rate of 5% or less (almost no effect))
same,"Q: false cleavers, herbicidal effect grade",false cleavers [17],0 (Herbicidal rate of 5% or less (almost no effect))
same,"I: wild oat, herbicidal effect grade",wild oat [18],3 (Herbicidal rate of 40% or more and less than 70%)
same,"P: chickweed, herbicidal effect grade",chickweed [19],0 (Herbicidal rate of 5% or less (almost no effect))
same,"M: velvetleaf, herbicidal effect grade",velvetleaf [20],0 (Herbicidal rate of 5% or less (almost no effect))
same,"F: southern crabgrass, herbicidal effect grade",southern crabgrass [21],0 (Herbicidal rate of 5% or less (almost no effect))
same,"O: lambsquarters, herbicidal effect grade",lambsquarters [22],0 (Herbicidal rate of 5% or less (almost no effect))
same,herbicidal effect on lambsquarters (O),lambsquarters [23]; three weeks after application,3 (Herbicidal rate of 40% or more and less than 70%)
same,"K: Italian ryegrass, herbicidal effect grade",Italian ryegrass [24],0 (Herbicidal rate of 5% or less (almost no effect))
same,herbicidal effect on Italian ryegrass (K),Italian ryegrass [25]; three weeks after application,3 (Herbicidal rate of 40% or more and less than 70%)
same,"G: green foxtail, herbicidal effect grade",green foxtail [27],0 (Herbicidal rate of 5% or less (almost no effect))
